Assay results as given in US20060211045A1, “Fluorescently tagged ligands” (priority 2003, published 2006).

Key:
[1] = target: human adenosine A1-receptor (Homo sapiens, UniProt P30542); experiment: biochemical
[2] = target: T1, human adenosine A1 receptor (A1-AR) (Homo sapiens, UniProt P30542); experiment: Fluorescence correlation spectroscopy (FCS) of ligand binding on CHO-A1 cells
T1 construct: expressed in transfected cells; host or cells: CHO (CHO-K1) cells: CHO-A1 and CHO-A1fos; cell membranes in A1, whole or live cells in the other assays
T1 sequence (P30542 1-326): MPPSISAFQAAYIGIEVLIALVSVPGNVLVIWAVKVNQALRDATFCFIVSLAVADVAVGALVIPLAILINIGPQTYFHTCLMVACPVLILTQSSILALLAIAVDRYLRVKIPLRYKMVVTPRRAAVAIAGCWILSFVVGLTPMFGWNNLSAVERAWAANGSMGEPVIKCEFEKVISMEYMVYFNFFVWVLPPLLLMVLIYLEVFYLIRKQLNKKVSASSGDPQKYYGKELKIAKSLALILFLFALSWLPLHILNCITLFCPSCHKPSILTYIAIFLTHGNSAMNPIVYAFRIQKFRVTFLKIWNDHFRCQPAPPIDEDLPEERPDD
Source text: FCS is a non-invasive technique which measures fluctuations in fluorescence intensity in a confocal volume of <10^−15 l. Statistical analysis of these fluctuations gives information about the speed of diffusion (i.e. mass) and concentration of the fluorescent molecules present. Thus free ligand (fast diffusing) and bound ligand (slow diffusing) can be quantified simultaneously on a single cell. We have used FCS to measure binding of the fluorescent ligand, xanthine amine cogener-BODIPY®630/650 (XAC-BY630) to the human adenosine A1 receptor (A1-AR).
CHO cells expressing either the human A1-AR or an A1-AR-Topaz fusion were cultured on glass-bottomed 8-well plates and prepared for live cell measurement FCS measurements were made using a Zeiss Confocor 2, fitted with an Axiocam CCD camera for x-y positioning. Cells were incubated with ligands at 22° C. for the times indicated and the confocal volume was positioned on the upper membrane. Data were collected for 2×30 s, following a 15 s pre-bleach and analysed using a multi-parameter equation using Zeiss AIM software.

human A1-receptor = target: T2, human A1-receptor (Homo sapiens, UniProt P30542); experiment: Live cell confocal imaging of ligand binding to CHO-A1 cells; format: cell-based; parameters: expressed in transfected cells; host or cells: CHO (CHO-K1) cells: CHO-A1 and CHO-A1fos; cell membranes in A1, whole or live cells in the other assays
T2 sequence (P30542 1-326): T1 sequence (P30542 1-326)
Experimental: Images were acquired using a Zeiss LSM510 confocal microscope using CHO-A1 cells grown to 50% confluency on 8-well Labtek™ plates in Dulbecco's
Modification of Eagle's Medium:Ham's F12 containing 5% foetal calf serum and 2 mM glutamine. Cells were washed twice with HEPES-buffered saline prior to incubation at 22° C. with compounds as indicated.
Functional studies were performed in CHO-K1 cells expressing both the human A1-AR and a c-fos-pGL3 reporter vector (CHO-A1fos cells). […] Luciferase expression was quantified using a Luclite® kit according to manufacturer's instructions. Live cell confocal imaging was carried out on CHO-A1 cells or CHO cells expressing the A1-AR tagged on the C-terminus with a green fluorescent protein (CHO-A1Tpz).

SMILES	Kb [1]	Amount of τD1 component after DPCPX preincubation ([2]; 15 nM XAC-BY630 for 30 min, DPCPX 1 μM, 30 min preincubation, n=4)	Amount of τD1 component ([2]; 15 nM XAC-BY630 for 30 min, no DPCPX, n=8)	Diffusion time τD of free ligand in buffer (FCS) ([2]; in buffer, single component, n=10)	Diffusion time τD2, very slow diffusing component (non-specific binding) ([2]; upper membrane of CHO-A1 cells, XAC-BY630 1-40 nM, 10-60 min, 61/71 cells)	Diffusion time τD1, first slow-diffusing component (receptor-bound ligand) ([2]; upper membrane of CHO-A1 cells, XAC-BY630 1-40 nM, 10-60 min, 69/71 cells)	Binding to membrane-localised A1-ARs (confocal imaging) (human A1-receptor; CHO-A1 cells, 22° C.)	Time after which binding was detected (confocal imaging) (human A1-receptor; XAC-BY630 25-250 nM, CHO-A1 cells)	Inhibition of membrane binding of XAC-BY630 (confocal imaging) (human A1-receptor; 30 min pre-incubation with DPCPX 10^−8-10^−6M, XAC-BY630 30 min, 50 nM)
CCCn1c(=O)c2[nH]c(-c3ccc(OCC(=O)NCCNC(=O)CCCCCNC(=O)COc4ccc(/C=C/C5=[N+]6C(=Cc7ccc(-c8cccs8)n7[B-]6(F)F)C=C5)cc4)cc3)nc2n(CCC)c1=O [XAC-BY630, xanthine amine cogener-BODIPY®630/650]	126 nM	13.6±5.4 receptors/μm^2	51.8±14.9 receptors/μm^2	60±2 μs	345 ± 41 ms	17.4 ± 1.1 ms	time- and concentration-dependent manner	5 min	–
CCCn1c(=O)c2[nH]c(C3CCCC3)nc2n(CCC)c1=O [DPCPX, 8-cyclopentyl-1,3-dipropyl xanthine, reference compound]	–	–	–	–	–	–	–	–	concentration-dependent inhibition
